Measured values reported in patent US5049686A, “Novel large-ring diamine platinum(II) and platinum(IV) chelates” (Warner-Lambert Company, priority 1989, dated 1991).

Assays:
Type in all cases: cell-based, murine
L1210S = test: In vitro cytotoxicity, growth inhibition of normal L1210 cell line over 72 hours; conditions: for factor of crossresistance (resistance ratio): ID50 divided by ID50 against normal cell line, in parentheses, 4320 min; for ID50: normal L1210 cell line, 72 hours
Description: (§1) ID50 values are the concentration of complex required to inhibit the in vitro growth of treated cells to a level of 50% of that for untreated cells over a 72-hour period. The cell lines are suspended in appropriate media at a concentration which results in the cells remaining in log phase growth throughout the treatment period. Serially diluted drug is added to duplicate wells containing the cell growth. After 72 hours of incubation of the cell lines in 5% CO2, the cells are counted and the ID50 values determined.
(§2) Resistance ratio values shown in Table 1 were calculated by dividing the ID50 values against the resistant cell lines by the ID50 values against the normal cell lines. The resistance ratio values shown in the table indicate a measure of the degree of resistance of the cell line to a particular drug.

L1210PtR4 = test: In vitro cytotoxicity, growth inhibition of resistant L1210 cell line L1210PtR4 over 72 hours; conditions: for ID50: 72 hours; for factor of crossresistance (resistance ratio): ID50 resistant / ID50 normal cell line, in parentheses, 4320 min
Description: as §1, §2

L1210DDP5 = test: In vitro cytotoxicity, growth inhibition of resistant L1210 cell line L1210DDP5 over 72 hours; conditions: for ID50: 72 hours; for factor of crossresistance (resistance ratio): ID50 resistant / ID50 normal cell line, in parentheses, 4320 min
Description: as §1, §2

L1210DACH = test: In vitro cytotoxicity, growth inhibition of Pt(DACH)Cl2-resistant L1210 cell line over 72 hours; conditions: for ID50 / factor of crossresistance (resistance ratio): L1210DACH; for ID50: 72 hours; for factor of crossresistance (resistance ratio): ID50 resistant / ID50 normal cell line, in parentheses; for factor of crossresistance (resistance ratio) / cross resistance to Pt(DACH)Cl2-resistant L1210 cells in culture: 4320 min
Description: as §1, §2

L1210 cell lines = test: In vitro antitumor activity against L1210 cell lines compared with cisplatin; conditions: in words
Description: as §1, §2

[1] = system: cisplatin-resistant cells; test: In vitro activity against cisplatin-resistant L1210 cells compared with cisplatin; conditions: in words; for effectiveness against cisplatin-resistant cells: compared with cisplatin
Description: as §1, §2

| Compound | factor of crossresistance (resistance ratio) (L1210S) | ID50 (L1210S) [µg/mL] | ID50 (L1210PtR4) [µg/mL] | factor of crossresistance (resistance ratio) (L1210PtR4) | ID50 (L1210DDP5) [µg/mL] | factor of crossresistance (resistance ratio) (L1210DDP5) | ID50 (L1210DACH) [µg/mL] | factor of crossresistance (resistance ratio) (L1210DACH) | cross resistance to Pt(DACH)Cl2-resistant L1210 cells in culture (L1210DACH) [fold] | antitumor activity compared to cisplatin (potency and response) (L1210 cell lines) | effectiveness against cisplatin-resistant cells [1] | cross resistance to cisplatin [1] |
| --- | --- | --- | --- | --- | --- | --- | --- | --- | --- | --- | --- | --- |
| (SP-4-2)-Dichloro(1,5-pentanediamine-N,N')-platinum [Example 1] | 1 | 0.43 | 1.13 | 2.6 | 1.58 | 3.7 | 1.17 | 2.7 | 2.7 | superior to cisplatin both in potency and response | more effective than cisplatin against cisplatin-resistant cells | some degree of cross resistance to cisplatin |
| (SP-4-2)-Dichloro(1,6-hexanediamine-N,N')-platinum [Example 2] | 1 | 0.93 | 2.8 | 3 | 3.7 | 4 | 2.13 | 2.3 | 2.3 | superior to cisplatin both in potency and response | more effective than cisplatin against cisplatin-resistant cells | some degree of cross resistance to cisplatin |
| NC1CCCCC1N.[Cl][Pt][Cl] (stereo not drawn) [[Pt(trans-l-DACH)Cl2], [SP-4-2-(1R-trans)]-dichloro(1,2-cyclohexanediamine-N,N')platinum, reference compound] | 1 | 0.088 | 0.159 | 1.8 | 0.176 | 2 | 2.67 | 30 | 30 | – | – | – |
| N.N.[Cl][Pt][Cl] [Cisplatin, cis-diaminedichloroplatinum(II), reference compound] | – | 0.34 | 3.61 | – | 5.63 | – | 0.467 | – | – | – | – | – |
